Numbers after ± are expanded uncertainties.
Columns and labels:
[1] = 298.15 K, 101.33 kPa, Liquid
[2] = molar heat capacity at constant pressure; settings: 101.33 kPa, Liquid
[3] = xn = mol fraction of the nth substance listed; settings: 101 kPa, Liquid, Small sample (50 mg) DSC

CCCCO [butan-1-ol]
Settings	mass density [kg/m3]
[1]	805.77 ± 0.29

[2]
Settings	molar heat capacity at constant pressure [J/K/mol]
293.15 K	173.8 ± 1.5
298.15 K	177.1 ± 1.5
303.15 K	180.61 ± 1.6
308.15 K	184.28 ± 1.6
313.15 K	188.02 ± 1.6
318.15 K	192.1 ± 1.7
323.15 K	196.13 ± 1.7
328.15 K	200.4 ± 1.7
333.15 K	204.72 ± 1.8
338.15 K	209.16 ± 1.8
343.15 K	213.57 ± 1.9
348.15 K	218.1 ± 1.9
353.15 K	222.54 ± 1.9

CCC(O)CO (stereo unspecified) [1,2-butanediol]
Settings	mass density [kg/m3]
[1]	998.408 ± 0.5

[2]
Settings	molar heat capacity at constant pressure [J/K/mol]
288.15 K	225.51 ± 1.9
293.15 K	228.22 ± 2
298.15 K	230.94 ± 2
303.15 K	233.64 ± 2
308.15 K	236.32 ± 2
313.15 K	238.97 ± 2.1
318.15 K	241.59 ± 2.1
323.15 K	244.18 ± 2.1
328.15 K	246.72 ± 2.1
333.15 K	249.2 ± 2.2
338.15 K	251.63 ± 2.2
343.15 K	254 ± 2.2
348.15 K	256.29 ± 2.2
353.15 K	258.5 ± 2.2
358.15 K	260.63 ± 2.3

CC(O)CC(C)(C)O (stereo unspecified) [2-methyl-2,4-pentanediol]
Settings	mass density [kg/m3]	molar heat capacity at constant pressure [J/K/mol]
[1], Vibrating tube method	918.22 ± 0.3	–
[2], 298.15 K	–	263.09 ± 2
[2], 303.15 K	–	267.1 ± 2.1
[2], 308.15 K	–	271.31 ± 2.1
[2], 313.15 K	–	275.53 ± 2.1
[2], 318.15 K	–	279.94 ± 2.2
[2], 323.15 K	–	284.5 ± 2.2
[2], 328.15 K	–	289.17 ± 2.2
[2], 333.15 K	–	293.9 ± 2.3
[2], 338.15 K	–	298.68 ± 2.3
[2], 343.15 K	–	303.35 ± 2.4
[2], 353.15 K	–	313.68 ± 2.4

CC(O)C(C)O (stereo unspecified) [2,3-butanediol]
Settings	mass density [kg/m3]
[1]	1000.4 ± 0.5

[2]
Settings	molar heat capacity at constant pressure [J/K/mol]
298.15 K	236.67 ± 2
303.15 K	239.28 ± 2.1
308.15 K	241.85 ± 2.1
313.15 K	244.35 ± 2.1
318.15 K	246.82 ± 2.1
323.15 K	249.23 ± 2.2
328.15 K	251.6 ± 2.2
333.15 K	253.91 ± 2.2
338.15 K	256.17 ± 2.2
343.15 K	258.39 ± 2.2
348.15 K	260.55 ± 2.3
353.15 K	262.67 ± 2.3

OCCCCO [1,4-butanediol] + CCCCO
excess molar heat capacity [J/K/mol], [3]
Settings	x1 = 0.0804	x1 = 0.1099	x1 = 0.1826	x1 = 0.2497	x1 = 0.3244	x1 = 0.5919
293.15 K	0.031 ± 0.15	0.095 ± 0.16	0.129 ± 0.16	0.127 ± 0.16	0.089 ± 0.16	0.005
298.15 K	–	0.096 ± 0.16	0.011	0.093 ± 0.16	0.016 ± 0.15	–
303.15 K	–	0.055 ± 0.16	–	0.025 ± 0.15	–	–

OCCCCO [1,4-butanediol]
Settings	mass density [kg/m3]
[1]	1012.75 ± 0.54

[2]
Settings	molar heat capacity at constant pressure [J/K/mol]
293.15 K	200.39 ± 1.7
298.15 K	203.06 ± 1.8
303.15 K	205.82 ± 1.8
308.15 K	208.65 ± 1.8
313.15 K	211.57 ± 1.8
318.15 K	214.55 ± 1.9
323.15 K	217.61 ± 1.9
328.15 K	220.72 ± 1.9
333.15 K	223.9 ± 1.9
338.15 K	227.12 ± 2
343.15 K	230.4 ± 2
348.15 K	233.72 ± 2
353.15 K	237.07 ± 2

Source: the NIST ThermoML archive (doi:10.1016/j.jct.2007.04.011)
